# From PMC6440977, “Nucleoside analogue activators of cyclic AMP-independent protein kinase A of Trypanosoma” (Nature Communications, 2019)
# Several values for one entry are separate records, joined by “and”; a condition that tells them apart may be missing. Identical values can stand only once. Like-named read-outs stand apart in the source and are kept apart here. Ends that are not written are not given here. * marks the point of attachment. Myristoyl = CCCCCCCCCCCCCC(=O)*
# Key:
# T. brucei PKA = T. brucei PKA (Trypanosoma brucei brucei, UniProt Q9GU80); test: In vivo PKA reporter assay (VASP Ser-157 phosphorylation, western blot); format: cell-based; settings: for % VASP phosphorylation: independent replicates; for effect on in vivo PKA activity (VASP phosphorylation), in words: wild type background;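 on % VASP phosphorylation: Phosphorylated VASP as percent of total VASP band signal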;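 on all read-outs here: T. brucei cells expressing human VASP as heterologous PKA substrate, compound exposure at 37 °C, western blot of phospho (50 kDa) versus unphosphorylated (46 kDa) VASP band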
# Chain of T. brucei PKA (Q38DS1 entry or part of it): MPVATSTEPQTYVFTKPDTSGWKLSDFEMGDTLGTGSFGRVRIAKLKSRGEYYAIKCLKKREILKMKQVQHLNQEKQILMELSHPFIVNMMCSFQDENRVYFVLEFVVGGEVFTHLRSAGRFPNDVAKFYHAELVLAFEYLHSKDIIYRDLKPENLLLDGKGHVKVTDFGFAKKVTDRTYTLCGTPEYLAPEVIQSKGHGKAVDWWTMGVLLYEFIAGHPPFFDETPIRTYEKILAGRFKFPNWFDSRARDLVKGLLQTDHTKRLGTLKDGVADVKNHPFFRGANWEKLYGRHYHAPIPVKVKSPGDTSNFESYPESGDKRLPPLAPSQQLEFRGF
# Chain of T. brucei PKA (Q38DR5 entry or part of it, further chain): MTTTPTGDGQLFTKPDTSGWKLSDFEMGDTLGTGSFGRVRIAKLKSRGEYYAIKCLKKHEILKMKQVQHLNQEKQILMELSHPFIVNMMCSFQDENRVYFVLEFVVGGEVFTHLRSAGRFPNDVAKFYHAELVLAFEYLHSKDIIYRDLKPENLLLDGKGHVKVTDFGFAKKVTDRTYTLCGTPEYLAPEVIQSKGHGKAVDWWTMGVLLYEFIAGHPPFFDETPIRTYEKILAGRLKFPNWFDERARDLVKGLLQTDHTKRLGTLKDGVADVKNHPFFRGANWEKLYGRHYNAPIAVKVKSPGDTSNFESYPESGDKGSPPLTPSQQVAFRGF
# Chain of T. brucei PKA (Q9GU80 entry or part of it): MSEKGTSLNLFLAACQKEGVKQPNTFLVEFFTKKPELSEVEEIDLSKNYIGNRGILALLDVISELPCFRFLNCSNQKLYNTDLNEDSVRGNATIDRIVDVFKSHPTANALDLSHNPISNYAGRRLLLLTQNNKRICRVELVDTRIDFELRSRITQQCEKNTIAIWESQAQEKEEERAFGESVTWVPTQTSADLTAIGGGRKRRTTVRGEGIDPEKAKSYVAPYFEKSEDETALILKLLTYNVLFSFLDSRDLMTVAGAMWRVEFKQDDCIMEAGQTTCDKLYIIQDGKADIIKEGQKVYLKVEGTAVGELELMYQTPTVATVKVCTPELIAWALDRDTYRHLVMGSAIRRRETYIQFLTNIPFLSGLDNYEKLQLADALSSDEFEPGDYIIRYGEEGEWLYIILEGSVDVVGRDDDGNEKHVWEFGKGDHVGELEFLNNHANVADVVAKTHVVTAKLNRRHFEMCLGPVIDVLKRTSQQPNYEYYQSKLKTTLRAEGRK
# [1] = tested on: T. brucei ∆pkar/∆pkar (pkar KO) cells; test: microbe, parasite or virus in culture; format: cell-based, Trypanosoma brucei; settings: read-out: EC50, Alamar blue cell viability assay, KO; individual replicate results; pkar KO cells
# T. brucei BSF cells (WT) = test: Alamar blue cell viability assay, wild type; settings: wild type cells;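 further: trypanosomes seeded at 5×10^3 per ml and grown 72 h with compound, then resazurin 0.5 mM added for 4 h as the viability read-out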
# [2] = biological target: T. brucei PKAR-PKAC1 holoenzyme (Trypanosoma brucei, UniProt Q9GU80); test: biochemical; format: biochemical; settings: for In vitro kinase assay: technical replicates
# Chain of T. brucei PKAR-PKAC1 holoenzyme (Q38DR5 entry or part of it): as the sequence (Q38DR5 entry or part of it, further chain) above
# Chain of T. brucei PKAR-PKAC1 holoenzyme (Q9GU80 entry or part of it): as the sequence (Q9GU80 entry or part of it) above
# [3] = tested on: T. brucei PKA holoenzyme (Ty1-PKAC1); format: biochemical, Trypanosoma brucei; settings: for effect on basal kinase activity of immunoprecipitated holoenzyme, in words / in vitro kinase assay [CPM], average / in vitro kinase assay [CPM]: 1 mM; for in vitro kinase assay [CPM], PKI: 1 mM + 5 µM PKI(5-24); for in vitro kinase assay [CPM], PKI / in vitro kinase assay [CPM], average / in vitro kinase assay [CPM]: Supp Fig 3c; for in vitro kinase assay [CPM], average: average of 3; for in vitro kinase assay [CPM]: independent replicates
# [4] = read-out: EC50, Alamar blue cell viability assay, WT, individual replicate results
compound,measurement,setting,value
CO[C@@H]1[C@@H]2OP(=O)(O)OC[C@H]2O[C@H]1n1c(Sc2ccc(Cl)cc2)nc2c(N)ncnc21 [8-pCPT-2'O-me-cAMP],% VASP phosphorylation,T. brucei PKA; 10 µM,41.2113% and 39.9561% and 36.9456%
same,% VASP phosphorylation,T. brucei PKA; 20 µM,34.7976% and 43.6436% and 30.9578%
same,% VASP phosphorylation,T. brucei PKA; 50 µM,31.7213% and 39.4904% and 29.8481%
same,% VASP phosphorylation,T. brucei PKA; 100 µM,33.7045% and 41.4368% and 33.2969%
same,% VASP phosphorylation,T. brucei PKA; 250 µM,30.1497% and 39.413% and 35.4525%
NC(=O)c1cn([C@@H]2O[C@H](CO)[C@@H](O)[C@H]2O)c2ncnc(N)c12 [Sangi],EC50,[1],1570 nM and 868 nM and 2200 nM and 1910 nM and 1630 nM and 1940 nM and 1360 nM and 902 nM
same,EC50,"T. brucei BSF cells (WT); Trypanosoma brucei, read-out: EC50, Alamar blue cell viability assay, WT, individual replicate results",697 nM
same,EC50,T. brucei BSF cells (WT); [4],895 nM and 530 nM and 730 nM and 713 nM and 726 nM and 707 nM
"Nc1ncnc2c1ccn2[C@@H]1O[C@H](CO)[C@@H](O)[C@H]1O [Tubercidin, 7-Deazaadenosine]","effect on in vivo PKA activity (VASP phosphorylation), in words",T. brucei PKA,No effect
same,EC50,[2],5000 ± 500 nM
same,In vitro kinase assay,[2]; 0.1 µM,0.31 U/ml and 0.36 U/ml
same,In vitro kinase assay,[2]; 0.78 µM,0.36 U/ml and 0.39 U/ml
same,In vitro kinase assay,[2]; 1.56 µM,0.39 U/ml and 0.42 U/ml
same,In vitro kinase assay,[2]; 3.13 µM,0.51 U/ml and 0.54 U/ml
same,In vitro kinase assay,[2]; 6.25 µM,0.7 U/ml and 0.67 U/ml
same,In vitro kinase assay,[2]; 12.5 µM,0.84 U/ml and 0.75 U/ml
same,In vitro kinase assay,[2]; 25 µM,0.84 U/ml and 0.93 U/ml
same,In vitro kinase assay,[2]; 50 µM,0.89 U/ml and 0.85 U/ml
"CC(=O)OCOP1(=O)OC[C@H]2O[C@@H](n3cnc4c(N)ncnc43)[C@H](O)[C@@H]2O1 (stereo partly shown) [cAMP-AM, Adenosine-3',5'-monophosphate, acetoxymethyl ester]",% VASP phosphorylation,T. brucei PKA; 10 µM,36.276% and 37.2% and 34.8195%
same,% VASP phosphorylation,T. brucei PKA; 20 µM,33.4307% and 32.7356% and 35.3637%
same,% VASP phosphorylation,T. brucei PKA; 50 µM,35.9017% and 33.7363% and 34.7458%
same,% VASP phosphorylation,T. brucei PKA; 100 µM,35.4076% and 39.0007% and 33.2483%
same,% VASP phosphorylation,T. brucei PKA; 200 µM,44.3984% and 35.5186% and 38.5924%
same,"effect on in vivo PKA activity (VASP phosphorylation), in words",T. brucei PKA,No PKA activation
"O=c1ccn([C@@H]2O[C@@H]3COP(=O)(O)O[C@H]3[C@H]2O)c(=O)[nH]1 [cUMP, uridine -3’,5’-cyclic monophosphate]","effect on basal kinase activity of immunoprecipitated holoenzyme, in words",[3],did not show any significant effects
same,"in vitro kinase assay [CPM], PKI",[3],572.53 CPM
same,"in vitro kinase assay [CPM], average",[3],5670.69 CPM
same,in vitro kinase assay [CPM],[3],4751.21 CPM and 5966.27 CPM and 6294.58 CPM
OCCN(CCO)c1nc(N2CCCCC2)c2nc(N(CCO)CCO)nc(N3CCCCC3)c2n1 [Dipyridamol],In vitro kinase assay,[2]; 1 µM,0.38 U/ml and 0.36 U/ml
same,In vitro kinase assay,[2]; 100 µM,0.31 U/ml and 0.36 U/ml
same,In vitro kinase assay,[2]; 1 mM,0.38 U/ml and 0.41 U/ml
"OC[C@H]1O[C@@H](n2cnc3c(Cl)ncnc32)[C@H](O)[C@@H]1O [6-Cl-PuR, 6-Chloropurine riboside]",% VASP phosphorylation,T. brucei PKA; 2 µM,27.0392% and 26.6154% and 24.2815%
same,% VASP phosphorylation,T. brucei PKA; 5 µM,24.7092% and 27.9877% and 23.4187%
same,% VASP phosphorylation,T. brucei PKA; 10 µM,20.6897% and 25.2945% and 23.0524%
same,% VASP phosphorylation,T. brucei PKA; 20 µM,24.6262% and 26.5882% and 23.4334%
same,% VASP phosphorylation,T. brucei PKA; 50 µM,28.7467% and 26.8897% and 25.4464%
same,% VASP phosphorylation,T. brucei PKA; 100 µM,33.239% and 35.1611% and 28.0731%
same,"effect on in vivo PKA activity (VASP phosphorylation), in words",T. brucei PKA,no effect
"O=c1[nH]cnc2c1ncn2[C@@H]1O[C@@H]2COP(=O)(O)O[C@H]2[C@H]1O [cIMP, inosine-3’,5’-cyclic monophosphate]","effect on basal kinase activity of immunoprecipitated holoenzyme, in words",[3],did not show any significant effects
same,"in vitro kinase assay [CPM], PKI",[3],620.6 CPM
same,"in vitro kinase assay [CPM], average",[3],7285.53 CPM
same,in vitro kinase assay [CPM],[3],5568.4 CPM and 8615.56 CPM and 7672.63 CPM
"Nc1ncnc2c1nc(Sc1ccc(Cl)cc1)n2[C@@H]1O[C@H](CO)[C@@H](O)[C@H]1O [8-pCPT-Ado, 8-(4-Chlorophenylthio)adenosine]","effect on in vivo PKA activity (VASP phosphorylation), in words",T. brucei PKA,slight inhibitory
"CO[C@@H]1[C@H](O)[C@@H](CO)O[C@H]1n1c(Sc2ccc(Cl)cc2)nc2c(N)ncnc21 [8-pCPT-2-′O-Me-Ado, 8-(4-Chlorophenylthio)-2'-O-methyladenosine]","effect on in vivo PKA activity (VASP phosphorylation), in words",T. brucei PKA,slight inhibitory
"myr-PKI(14–22): myristoylated membrane-permeable peptide inhibitor of PKA (Myristoyl-SGRTGRRNA; UniProt P61925 14-22, looked up, fragment)",VASP phosphorylation upon treatment with inhibitor alone,T. brucei PKA; depending on the inhibitor batch,3-10%
same,"effect on in vivo PKA activity (VASP phosphorylation), in words",T. brucei PKA,reduced the measured activity to background
Nc1ncnc2c1c(I)cn2[C@@H]1O[C@H](CO)[C@@H](O)[C@H]1O [5ITu],EC50,[1],365 nM and 366 nM and 542 nM and 168 nM and 345 nM and 276 nM and 265 nM and 448 nM
same,EC50,T. brucei BSF cells (WT); [4],134 nM and 378 nM and 467 nM and 417 nM and 291 nM and 390 nM and 317 nM and 247 nM
"Nc1ncnc2nc(Sc3ccc(Cl)cc3)[nH]c12 [8-pCPT-Ade, 8-(4-Chlorophenylthio)adenine]","effect on in vivo PKA activity (VASP phosphorylation), in words",T. brucei PKA,no effect
